Reference: PubChem BioAssay AID1645848
Converted amounts (≈) assume the structure as drawn.

Details: buffer; pH 7.4; 6.0 h; 150.0 µM

Compound | solubility kinetic [µg/mL]
Cc1cc(C)nc(NC(=S)N2CCN(c3nccc(C(F)(F)F)n3)CC2)c1 | 7.21 (≈ 18.2 µM)
COC(=N)c1nc2ccc3ncnc(Nc4ccc(F)cc4Br)c3c2s1 | < 1
Cc1ccc(NS(=O)(=O)c2cc3c(cc2N[C@H](C)CO)NC(=O)CC3)cc1C | > 60
Cc1cc(NS(=O)(=O)c2ccc(NC(=O)Cc3ccc(Cl)c(F)c3)cc2)no1 | > 63
Cn1c(=O)c2c(-c3ccc(Cl)cc3)n(CCc3ccccc3)cc2n(C)c1=O | 2.15 (≈ 5.46 µM)
CC[C@H](C)[C@@H]([C@@H](CC(=O)N1CCC[C@H]1[C@H](OC)[C@@H](C)C(=O)N[C@@H](Cc1ccccc1)c1nccs1)OC)N(C)C(=O)[C@@H](NC(=O)[C@H](C(C)C)N(C)C)C(C)C | 65.7 (≈ 83.7 µM)
COc1ccc2c(ccn2CCC(=O)Nc2ccc3c(c2)C(=O)N2CCC[C@H]2C(=O)N3)c1 | > 43
O=C(NCC1(c2nc(-c3ccccc3)cs2)CCOCC1)c1cccc(-c2noc(C(F)(F)F)n2)c1 | 4.96 (≈ 9.65 µM)
COc1ccccc1N1CCN(C2CCCCC2NS(=O)(=O)c2ccccc2)CC1 (stereo not given) | 2.68 (≈ 6.25 µM)
O=[S+]([O-])(Nc1nccs1)c1ccc(NCc2cccc(Cl)c2)cc1 | 2.53 (≈ 6.67 µM)
NC1(c2ccc(NC(=O)c3ccnc(-c4cc(C(=O)O)ccn4)c3)cc2)CC1 | 2.79 (≈ 7.46 µM)
Cc1cccc2oc(NC3=NC(c4[nH]ncc4Cl)C4=C(CCCC4=O)N3)nc12 (stereo not given) | < 1
COC(=O)[C@]12CCC(C)(C)C[C@H]1[C@H]1C(=O)C=C3[C@@]4(C)C=C(C#N)C(=O)C(C)(C)[C@@H]4CC[C@@]3(C)[C@]1(C)CC2 | 1.99 (≈ 3.93 µM)
Cc1ccc(S(=O)(=O)Nc2cnccc2C(=O)Nc2nc(-c3cnn(C)c3)cs2)cc1 | 25.4 (≈ 55.8 µM)
Cc1ccc(S(=O)(=O)Nc2cnccc2C(=O)Nc2ccc(N3CCOCC3)cc2)cc1 | > 67
O=C(CCCc1ccc2cccnc2n1)NCc1cc(-c2ccc(F)c(C(F)(F)F)c2)no1 | 3.29 (≈ 7.18 µM)
CN(C)c1cccc(-c2ncnc(N3CCC(C(N)=O)CC3)n2)c1 | > 48
CCCCCn1c(=O)[nH]c2cc(C(=O)NCCCN3CCCCC3)ccc2c1=O | > 59
O=[S+]([O-])(Nc1ccc(N2CCNCC2)cc1)c1ccc(NCc2ccc(Br)cc2O)cc1 | 20.1 (≈ 38.8 µM)
O=c1[nH]c(C2CCCN(CC3CCCCC3)C2)nn1-c1ccc(Cl)cc1 (stereo not given) | < 1
Cc1ccc(NS(=O)(=O)c2ccc(C(=O)Nc3nc(-c4ccccc4)cs3)cc2)cc1 | < 1
Cc1ccc(S(=O)(=O)Nc2ccccc2C(=O)Nc2ccc(-c3ccccc3)cc2)cc1 | < 1
CCOC(=O)N1CCN(C(=O)Cn2sc3nc(C)cc(C)c3c2=O)CC1 | 39 (≈ 103 µM)
CC(C)NC(=O)c1nc(-c2ccc(Cl)nc2)c2ccccn12 | 17.2 (≈ 54.6 µM)

Compound | solubility kinetic [µg/mL]
CCOc1ccc(CCNC(=O)c2cc3ncccc3n2Cc2cccc(C)n2)cc1OCC | > 68
Nc1cc(-c2nc(Nc3ccc(F)c(F)c3)c3ccccc3n2)ccn1 | < 1
Oc1ccc(C(=S)N2CCN(c3cccc(Cl)c3)CC2)cc1 | < 1
NC1CCN(C(=O)C2CCCN(c3nc(-c4ccccc4)nc4c3CCC4)C2)CC1 (stereo not given) | > 40
Cc1ccc(S(=O)(=O)Nc2cc3c(cc2C(=O)Nc2nc(-c4ccccc4)cs2)OCO3)cc1 | < 1
Cc1ccc(S(=O)(=O)Nc2cccnc2C(=O)Nc2nc(-c3ccccc3)cs2)cc1 | < 1
O=C1Nc2ccccc2/C1=C\c1ccc(O)c(Cl)c1 | 22.8 (≈ 83.9 µM)
OC1(c2ccc(Cl)cc2)CCN(Cc2c[nH]c3ccccc23)CC1 | > 50
O=C(O)c1c(Sc2ccccc2)c2cc(Cl)ccc2n1Cc1ccc(Cl)cc1 | > 63
CN(C)c1cccc(-c2cnc(Nc3cccnc3)c3c2CCO3)c1 | < 1
O=C(Nc1cn[nH]c1-c1nc2ccc(CN3CCOCC3)cc2[nH]1)NC1CC1 | > 38
N=c1c2c(ccn1CCc1ccccc1)Oc1ccc3ccccc3c1C2c1ccccc1 (stereo not given) | < 1
O=C(Nc1ccc(S(=O)(=O)Nc2nccs2)cc1)c1ccc(-c2ccccc2)cc1 | < 1
c1ccc2c(N3CCOCC3)nc(-c3ccncc3)nc2c1 | > 43
O=C(Nc1ccc2oc(-c3ccncc3)nc2c1)c1ccccc1Cl | < 1
Cc1noc(C)c1-c1ccc(Nc2nc(-c3ccncc3)nc3ccccc23)cc1F | < 1
COc1ccc(C(=O)NC2CCN(c3cnn(CC4CC4)c(=O)c3)CC2)c(OC)n1 | > 41
COc1ccc(OC)c(-c2nnc3n2N=C(c2c(OC)cccc2OC)CS3)c1 | 2.63 (≈ 6.37 µM)
N#Cc1cnc(NS(=O)(=O)c2ccc(NC(=O)Cc3ccc(F)c(Cl)c3)cc2)s1 | > 67
COc1ccc(C(=O)Nc2nc(-c3ccccc3)cs2)c(NS(=O)(=O)c2ccc(C)cc2)c1 | < 1
COc1cccc(NC(=S)N2CCN(c3cccc(C(F)(F)F)c3)CC2)n1 | 0.435 (≈ 1.1 µM)
c1ccc(-c2cn[nH]c2)cc1 | > 14
c1ccc(-c2csc3ncnc(Sc4nnn(-c5ccccc5)n4)c23)cc1 | < 1
CCOC(=O)C1CCN(C(=O)C2(NC(=O)Nc3ccccc3Cl)CCC2)CC1 | 43.2 (≈ 106 µM)

Compound | solubility kinetic [µg/mL]
O=C(NC1CCCCC1)N1Cc2[nH]cnc2C[C@H]1c1nc(-c2cccc([N+](=O)[O-])c2)no1 | 14.2 (≈ 32.5 µM)
CC(=O)C1CCN(c2ncc(-c3cccc(N(C)C)c3)s2)CC1 | 3.33 (≈ 10.1 µM)
C[S+](=O)([O-])c1ccc(-c2nc(C(=O)N3CCOCC3)n3ccncc23)cc1 | > 57
Cc1ccc(-c2cc(C(=O)Nc3ccccn3)c3ccccc3n2)cc1 | < 1
Cc1ccc(S(=O)(=O)Nc2ccccc2C(=O)Nc2cccc(-c3ccccc3)c2)cc1 | < 1
NC(=O)C1CCN(c2ncc(Br)cn2)CC1 | > 42
COc1ccc(CN2CCNc3cc(Nc4ccccc4)ncc3C2)cn1 | 31.1 (≈ 86 µM)
Cc1ccc(S(=O)(=O)Nc2cc(C(=O)Nc3nc(-c4ccccc4)cs3)ccc2Cl)cc1 | < 1
CSc1nc(N)cc(Oc2ccc(-c3nc(Nc4cccc(C(F)(F)F)c4)n[nH]3)cc2)n1 | < 1
NC(=O)C1CCN(c2ncc(-c3ccc4c(c3)OCO4)s2)CC1 | 5.31 (≈ 16 µM)
Cc1ccc(S(=O)(=O)Nc2cnccc2C(=O)Nc2nc(-c3ccc4c(c3)CCCC4)cs2)cc1 | < 1
CCc1cccc(C)c1Nc1c(-c2ccc(N(C)C)cc2)nc2ncccn12 | 1.88 (≈ 5.05 µM)
COc1ccccc1C(=O)Nc1nc2nc(C)cc(=O)n2[nH]1 | > 44
CN1CC=C(c2nc(Nc3ccc(F)c(F)c3)c3ccccc3n2)CC1 | 33.8 (≈ 96 µM)
Oc1ccc(CNc2ccc(C(F)(F)F)cc2F)c2cccnc12 | 6.45 (≈ 19.2 µM)
COc1cc(-c2nc(Cn3nnc(C(=O)Nc4cc(C)cc(C)c4)c3C)c(C)o2)cc(OC)c1OC | < 1
CC(CNC(=O)C1CCN(Cc2cc3ccccc3n2Cc2ccccc2)CC1)c1ccccc1 (stereo not given) | 1.05 (≈ 2.25 µM)
COC1C(OC(=O)c2ccc(C)[nH]2)C(O)C(Oc2ccc3c(O)c(NC(=O)c4ccc(O)c(CC=C(C)C)c4)c(=O)oc3c2Cl)OC1(C)C (stereo not given) | > 100
CC1(C)C[C@@H]2C[C@@](C)(CN2S(=O)(=O)c2ccc(C(=O)Nc3ccc(Cl)c(S(=O)(=O)N4CCOCC4)c3)cc2)C1 | < 1
c1ccc(C2=Nn3c(nnc3-c3ccncc3)SC2)cc1 | 8.9 (≈ 30.3 µM)
CCOC(=O)c1ccc(-n2cnc3cc(C(=O)N4CCCCC4)ccc32)cc1 | > 56
O=S(=O)(Nc1cccc(C(F)(F)F)c1)c1ccc(NS(=O)(=O)c2ccc3c(c2)OCCO3)cc1 | < 1
Cc1ccc(S(=O)(=O)Nc2cnccc2C(=O)Nc2nc(-c3nc4ccccc4s3)cs2)cc1 | 2.11 (≈ 4.15 µM)
CCS(=O)(=O)N1CC(CC#N)(n2cc(-c3ncnc4[nH]ccc34)cn2)C1 | > 55

Compound | solubility kinetic [µg/mL]
CCOC(=O)C1CCN(C(=O)C(C)(C)NC(=O)Nc2ccc(Cl)cc2Cl)CC1 | 37 (≈ 86 µM)
CCCCOc1ccc(C2c3c(oc4ccc(C)cc4c3=O)C(=O)N2CCCN(C)C)cc1OCC (stereo not given) | 58.5 (≈ 119 µM)
CCn1c(-c2nonc2N)nc2cnc(Oc3cccc(NC(=O)c4ccc(OCCN5CCOCC5)cc4)c3)cc21 | < 1
O=C(c1nc(-c2cccnc2)c2ccccn12)N1CCOCC1 | 45.2 (≈ 147 µM)
COc1cc(C(=O)N2CCN(c3cc(Cl)ccc3Cl)CC2)cc(OC)c1OC | < 1
CN([C@@H](Cc1ccc(O[S+](=O)([O-])c2cccc3cnccc23)cc1)C(=O)N1CCN(C(=O)OCc2ccccc2)CC1)[S+](=O)([O-])c1cccc2cnccc12 | 1.26 (≈ 1.61 µM)
O=C(c1ccccc1)N1CCC(C(=O)N2CCC(N3Cc4ccccc4C3=O)CC2)CC1 | > 43
CN(C)c1cc(-c2nc(Nc3ccc(F)c(F)c3)c3ccccc3n2)ccn1 | < 1
O=C1CN(C(=O)CCC(=O)N2CCc3c(nc4cc(-c5ccccc5)[nH]n4c3=O)C2)c2ccccc2N1 | 15.6 (≈ 31.3 µM)
CCN(CC)CCCC(C)Nc1cc(/C=C/c2ccccc2Cl)nc2cc(Cl)ccc12 (stereo not given) | 25.4 (≈ 55.7 µM)
CN(C)c1cccc(-c2cc(N3CCC(C(N)=O)CC3)ncn2)c1 | > 48
FC(F)(F)c1cccc(Nc2ccc(CNc3nc(-c4ccccc4C(F)(F)F)nc4ccccc34)cc2)c1 | < 1
Cc1nnn(C)c1-c1cnc2c3ccc(C(C)(C)O)cc3n([C@H](c3ccccc3)C3CCOCC3)c2c1 | 29.6 (≈ 59.6 µM)
CC(=O)c1ccc(N2CCN(S(=O)(=O)c3ccc4c(c3)n(C)c(=O)n4C)CC2)cc1 | 2.6 (≈ 6.07 µM)
O=S(=O)(Nc1ccc(-c2ccccc2)cc1)c1ccc(NCc2cccc(Cl)c2O)cc1 | < 1
COc1ccc(Cl)cc1C(=O)Nc1nc(-c2ccccc2)cs1 | < 1
Cc1ccc(S(=O)(=O)Nc2cc(C(=O)Nc3nc(-c4ccccc4)cs3)ccn2)cc1 | < 1
CCOc1ccc(CCNC(=O)c2cc3ccccc3n2Cc2ccc(Cl)c(F)c2)cc1OCC | < 1
COC(=O)c1ccccc1C(=O)Nc1nc(-c2ccccc2)cs1 | 7.61 (≈ 22.5 µM)
CCOc1ccc(CCNC(=O)c2cc3sccc3n2Cc2ccccn2)cc1OCC | < 1
COc1cc(-c2ccnc3c2c(C)nn3-c2cccc(C(F)(F)F)c2)ccc1O | 16.5 (≈ 41.2 µM)
Cc1cccc(-n2ncc3c2CCCC3NC(=O)c2c(F)ccc(F)c2F)c1C (stereo not given) | 7.25 (≈ 18.1 µM)
NC(=O)c1cccc(-c2cc(Nc3ccc(OC(F)(F)F)cc3)ncn2)c1 | < 1
